According to a melting point compilation (Tetko et al.; mined from patent text by program, amines drawn as free bases though some values may be those of a salt):

For `O=C(O)c1ccc2c(CCCCN3CC=C(c4ccccc4)CC3)c[nH]c2c1`, the melting point was 268 °C.
Compound `CCCC1(S(=O)(=O)CCCN2CCN(C)CC2)C(=O)N(S(=O)(=O)c2ccc3ccccc3c2)C2CCNC21` (centres undefined) has a melting point of 186 to 187 °C.
In the case of `Cc1c(NC(=O)CC(C)(C)C)cc2c(c1C)OC(C)(C)C2c1ccccc1` (centres undefined), the melting point is reported as 182 to 183 °C.
In the case of `CCOC(=O)CCCCOc1ccc(C(=N)NC(=O)OCc2ccccc2)cc1`, the melting point is reported as 88 to 90 °C.
Work on `CN(C)c1ccc(C(=CC(c2ccc(N(C)C)cc2)c2ccc(N(C)C)cc2)c2ccc(N(C)C)cc2)cc1` yielded a melting point of 189 to 190 °C.
With `O=C(O)c1cc(=O)c(Sc2ccccc2)co1` the melting point was 178 to 181 °C.
Work on `CCN(CC1CCCC1)c1nc2c(cc1CN(Cc1cc(C(F)(F)F)cc(C(F)(F)F)c1)C(N)=O)c(C)nn2C` yielded a melting point of 139 °C.
For `CC(C)c1nn(Cc2ccc(Cl)cc2Cl)cc1CCCOc1cc(CCC(=O)O)n(-c2ccccc2)n1`, the melting point was 105 to 107 °C.
In the case of `CCN1CCN(CC(=O)OCCOC)C(=O)c2ccc(Nc3ncc(Cl)c(Nc4ccccc4C(=O)NC)n3)cc21`, the melting point is reported as 198 to 202 °C.
Work on `O=[N+]([O-])c1ccc(F)cc1OC1C=CCC1` (centres undefined) yielded a melting point of 50.5 to 51 °C.
For `CCOCc1cc2c(=O)c(C(=O)NCc3ccc(Cl)cc3)cn(C)c2o1`, the melting point was 211 to 212 °C.
In the case of `COc1cc(COC2CCN(C(=O)c3ccc([N+](=O)[O-])cc3)CC2)cc(OC)c1OC`, the melting point is reported as 124 °C.
`CC(=O)OC1CC2(C)C(CCC23OCCO3)C2CC=C3CC(O)CCC3(C)C12` (centres undefined) gave a melting point of 125 to 126 °C.
`CC(=O)OCC(=O)C1(O)C(C)CC2C3CCC4=CC(=O)C=CC4(C)C3=CCC21C` (centres undefined) showed a melting point of 202 to 205 °C.
For `COc1ccccc1OCC1SCCN1C(=O)CCl` (centres undefined), the melting point was 87 to 88 °C.
With `CCCCCCCN1CCCc2cccc(O)c21` the melting point was 33 to 34 °C.
Compound `CCc1c(-c2ccc(OCc3ccccc3)cc2)c2cc(C(C)=O)c3ccc(CO)c1n32` has a melting point of 190 to 191 °C.
`C[C@@H]1C(=O)N(c2ccc(C#N)c(C(F)(F)F)c2)[C@@H](C)[C@H]1O` gave a melting point of 82 to 85 °C.
With `CC1CCCN(c2cccc3c2C(=N)NC3N)C1` (centres undefined) the melting point was 104 °C.
In the case of `CCn1ncc2c1ncc1c(NC)nc3ncnn3c12`, the melting point is reported as > 300 °C.
Work on `Cc1ccc(C(=O)NC(N2CCN(c3cccc(F)c3)C2=S)C(Cl)(Cl)Cl)cc1` (centres undefined) yielded a melting point of 184 to 186 °C.
Work on `O=C1Cn2ccnc2-c2ccccc2N1` yielded a melting point of 265 to 266 °C.
`CCn1c(=O)c2c(nc(/C=C/c3ccc(OCC(=O)c4ccccc4)c(OC)c3)n2C)n(CC)c1=O` showed a melting point of 180 to 182 °C.
In the case of `O=C(Nc1ccc(OC(F)F)cc1)N1N=C(c2ccc(Cl)cc2)CC1c1ccc(Cl)cc1` (centres undefined), the melting point is reported as 174 °C.
Compound `N#CC(N)COc1ccc(Oc2ccccc2)cc1` (centres undefined) has a melting point of 76.7 °C.
In the case of `CC(C)(O)CC(=O)N[C@H]1CC[C@H](CCN2CCC(c3cccc4c3CCO4)CC2)CC1`, the melting point is reported as 168 °C.
`CN1C(=C(C#N)C#N)Oc2ccccc21` gave a melting point of 198 to 200 °C.
`O=P(O)(O)Cc1ccccc1-c1ccccc1` gave a melting point of 168 to 169 °C.
Work on `CS(=O)(=O)c1ccc(/C(=C\CC2CCCC2)C(=O)O)cc1` yielded a melting point of 162 to 165 °C.
For `COc1nc(-n2cc(C(=O)O)c(=O)c3cc(F)c(F)c(Cl)c32)c(F)cc1F`, the melting point was 205 to 210 °C.
Work on `O=C(O)CCCn1ccnc1` yielded a melting point of 125 to 126 °C.
For `Cc1c(Cl)cc(C2=NNC(=O)C(S)C2)cc1Cl` (centres undefined), the melting point was 184 to 187 °C.
For `N#CC(Cl)CC(Cl)(Cl)C=O` (centres undefined), the melting point was 49 to 50 °C.
For `CCOc1ccc2c3c([nH]c2c1)CC(NC(C)=O)CC3` (centres undefined), the melting point was 184 to 186 °C.
In the case of `COC(=O)C1=C(C)NC(C)=C(C(=O)OCCc2ccc(OCC(O)CO)cc2)C1c1cccc([N+](=O)[O-])c1` (centres undefined), the melting point is reported as 117 to 118 °C.
For `CCc1[nH]n(C2CCCC2)c2nc(-c3cccc(-n4ccnc4)c3)nc(=O)c1-2`, the melting point was 264 to 265 °C.
With `O=C1NC(=O)c2cc(Nc3ccc(OCc4ccccc4)cc3)c(Nc3ccc(OCc4ccccc4)cc3)cc21` the melting point was 187 to 189 °C.
Work on `CCCCC1(C2CCCC2)Cc2cc(O)c(Cl)c(Cl)c2C1=O` (centres undefined) yielded a melting point of 160 °C.
`CCCCc1nnc(SCC(=O)OC)n1Cc1ccc(NC(=O)c2ccccc2C(=O)O)cc1` showed a melting point of 161 to 162 °C.
With `Oc1ccc(Cc2ccc(OCC(O)CCc3cccnc3)cc2)cc1` (centres undefined) the melting point was 98 to 99 °C.
With `CCCCCN1C(=O)C(O)(c2cc3c(cc2O)OCO3)c2cnccc21` (centres undefined) the melting point was 193 to 195 °C.
`O=c1nc(-c2ccc(F)cc2)c2c([nH]1)CCCC2` showed a melting point of 248 to 253 °C.
With `C[C@@H](n1cnc2cc(Br)c(F)cc2c1=O)[C@](O)(Cn1cncn1)c1ccc(F)cc1F` the melting point was 185 to 186 °C.
`Cn1cc(C(=O)CCC(=O)O)nc1-c1ccccc1` gave a melting point of 191 to 192 °C.
Work on `Cn1c(-c2ccc(O)cc2)cc2ccc(O)cc21` yielded a melting point of 200 to 204 °C.
Compound `NCCc1c[nH]c2cc(Cl)c(NC(N)=O)cc12` has a melting point of 212 to 213 °C.
In the case of `CCCCCCC1=CC(O)(C(Br)Br)N(Cc2ccccc2)C1=O` (centres undefined), the melting point is reported as 105 to 108 °C.
With `COc1ccc2[nH]nc(N3CCN(CCCn4c(=O)[nH]c5ccccc54)CC3)c2c1` the melting point was 195 to 197 °C.
For `CCCCC(C)OC(=O)c1ccccc1S(=O)(=O)NC(=O)Nc1nc(C)nc(OC)n1` (centres undefined), the melting point was 125 to 130 °C.
`OCCC1CCc2cc(OCc3ccc4ccccc4c3)ccc2C1` (centres undefined) gave a melting point of 90 to 91 °C.
Work on `COc1ccc(N2CCCn3c2nc2c(Cl)ccc(C(OCC(F)(F)F)C4CC4)c23)c(C)n1` (centres undefined) yielded a melting point of 158 to 160 °C.
In the case of `CN1C(=O)C2(COc3cc4c(cc32)OCCO4)c2c(Oc3ccccn3)cccc21` (centres undefined), the melting point is reported as 219 to 221 °C.
In the case of `O=C(NC(Cc1ccccc1)c1ccccn1)c1ccccc1` (centres undefined), the melting point is reported as 153 to 154 °C.
For `Cc1nccn1-c1nc(-c2ccc(Cl)cc2)c(CCCC(=O)O)o1`, the melting point was 211 to 212 °C.
Compound `CC1Oc2cc(N)c([N+](=O)[O-])cc2O1` (centres undefined) has a melting point of 139 °C.
`CC(C)(C)c1ccc(CCC(O)CC2CCCCC2)cc1NC(=O)CC1c2ccccc2Oc2ccccc21` (centres undefined) showed a melting point of 141 to 142 °C.
`Cc1nc2c(N)nc3ccccc3c2n1CCCNC(=O)N1CCOCC1` showed a melting point of 226 to 228 °C.
`CCCC(C(C)C)C(CN)CC(=O)O` (centres undefined) showed a melting point of 160 to 170 °C.
For `CCC(=NNC(=O)OC(C)(C)C)c1ccncc1`, the melting point was 170 °C.
`COC(=O)C(C)Oc1cccc2cccnc12` (centres undefined) showed a melting point of 70 to 72 °C.
For `Cc1noc(NS(=O)(=O)c2ccccc2-c2ccccc2)c1C`, the melting point was 154 to 155 °C.
Compound `CCOC(=O)N1CCCSC1=C(C(C)=O)[N+](=O)[O-]` has a melting point of 52 to 54 °C.
In the case of `CON1C=C2N=NC3=C(N(CC(C)C)CC(C)=C3)N2C1`, the melting point is reported as 144 to 145 °C.
For `Cc1cc(CCC(=O)O)no1`, the melting point was 82 to 84 °C.
Work on `COc1ccc(C(O)(c2ccc(C(C)C)cc2)C(C)C)c(OC)c1` (centres undefined) yielded a melting point of 80 to 81 °C.
Work on `CC(C)(C)OC(=O)/C(=C/c1ccccc1Cl)C(=O)c1ccccc1O` yielded a melting point of 75 to 78 °C.
For `CCC1Cc2c(nc3ccc(F)cc3c2C(=O)O)-c2ccc(-c3ccccc3F)cc21` (centres undefined), the melting point was 236 to 237 °C.
Compound `O=C1N[C@H](Cc2cccc(OC(F)(F)C(F)F)c2)[C@H](c2cccc(F)n2)O1` (racemic) has a melting point of 118 to 119 °C.
In the case of `Cc1ccnc(C(=O)c2[nH]c3cc(F)ccc3c2CC(=O)O)c1`, the melting point is reported as 208 °C.
In the case of `O=S(=O)(c1ccc(O)cc1)N1c2ccc(Br)cc2-c2ccccc2C1c1ccccc1` (centres undefined), the melting point is reported as 262 to 265 °C.
With `Cc1ccc(-c2ccc3c(c2)C=C(C(=O)Nc2ccc(CN(C)C4CCOCC4)cc2)CC(C)O3)cc1` (centres undefined) the melting point was 170 to 171 °C.
Compound `O=C1NC2(CCCCC2)Sc2ccccc21` has a melting point of 193 to 195 °C.
`CC(C)(C)C(=O)NC1CCCNC(=O)C1` (centres undefined) gave a melting point of 106 to 107 °C.
For `N#CCC1CCN(c2ccc(N3C[C@H](CO)OC3=O)cc2)CC1`, the melting point was 110 to 112 °C.
Compound `Cc1c(C)c(N2CCN(c3ccc(F)cc3)CC2)c(C)c2c1OC(C)(C)C2` has a melting point of 175 to 177 °C.
`O=C1CCCC2=C1C(c1cccc([N+](=O)[O-])c1)C1=C(CCCC1)N2` (centres undefined) showed a melting point of 218 to 221 °C.
With `CCN1c2ncc(COc3cccc(C(N)=O)c3)cc2C(=O)N(C)c2ccc(Cl)nc21` the melting point was 96 to 98 °C.
Work on `COc1ccc(-c2[nH]cnc2-c2cc(OC)c(Br)c(OC)c2)cc1O` yielded a melting point of 185 to 187 °C.
`Cc1c(C#N)c(-c2ccc(C#N)cc2)c(C)n1Cc1ccc(Cl)c(COC(=O)CCC(=O)O)c1` gave a melting point of 149 to 151 °C.
For `CCc1cccc(C)c1CNc1cc(C(N)=O)cc2c1nc(C)n2C`, the melting point was 240 to 241 °C.
In the case of `CCNC(=O)c1c(Br)ccc(OC)c1[Si](C)(C)C`, the melting point is reported as 200 °C.
Compound `COc1ccc(CN(C)CCOc2ccc(NC(=O)c3cccc4c(=O)c5cccc(OC)c5[nH]c34)cc2)cc1OC` has a melting point of 184 °C.
`Fc1ccc2c(c1)Oc1ccccc1-c1nc(SC(F)(F)C(F)F)[nH]c1-2` showed a melting point of 172 to 175 °C.
`CCOC(=O)C(=O)Nc1ccc2c(c1)CC(=O)N2` gave a melting point of 235 to 237 °C.
`c1ccc2c(c1)CC1(CCN(CCc3c[nH]c4ccccc34)CC1)O2` gave a melting point of 167 to 169 °C.
Work on `Cc1nc(-c2cc3c(OC[C@@H](O)CN4CCC(c5ccc6ccccc6c5)CC4)cccc3o2)no1` yielded a melting point of 146 to 148 °C.
With `O=C(O)Cc1cccc(NC(=O)NCC(=O)N2[C@@H](c3cccc(O)c3)CC[C@H]2c2ccccc2)c1` (racemic) the melting point was 166 °C.
In the case of `O=C(O)CC1COc2ccccc2O1` (centres undefined), the melting point is reported as 95 °C.
`O=C(CCC(O)c1ccccc1)NC1CCCCC1` (centres undefined) showed a melting point of 91 to 93 °C.
`Cc1ccc(S(=O)(=O)N2CCCC2c2ccc(N(C)C)c(F)c2)cc1` (racemic) gave a melting point of 66 °C.
`COC(=O)C(Br)Cc1ccc(OC)c(C(=O)NCc2ccc(C(F)(F)F)cc2)c1` (centres undefined) gave a melting point of 110 to 111 °C.
`O=Cc1c2c(cc3ccccc13)Cc1ccccc1-2` gave a melting point of 104 to 106 °C.
With `COC(=O)COc1ccc(-c2cccc3sc4ccccc4c23)cc1` the melting point was 148 to 150 °C.
With `CCOC(=O)C1=C(C)NC(c2csc(N)n2)=NC1c1ccc(F)cc1Cl` (centres undefined) the melting point was 95 to 110 °C.
In the case of `COC(=O)c1ccccc1-c1noc(-c2ccc(OC)cc2)n1`, the melting point is reported as 73 to 75 °C.
Work on `Cn1nc(-c2ccc(S(C)(=O)=O)cc2)c(-c2ccc(F)cc2)c1OCC(=O)c1ccc(F)cc1` yielded a melting point of 166 to 169 °C.
With `CCc1nn(C2CCCC2)c2cc(C(=O)NCCC(=O)O)ccc12` the melting point was 151 to 153 °C.
With `COC(=O)c1cc(C(=O)OC)n(-c2ccc(N)cc2C(=O)c2ccccc2)n1` the melting point was 171 to 172 °C.
Compound `CON=C1CN(c2nc3c(cc2F)c(=O)c(C(=O)O)cn3-c2ccc(F)cc2F)CC12CN(C(=O)OC(C)(C)C)C2` has a melting point of 230 to 232 °C.
